{"source": "patent US20020192262A1", "about": "“1'-Acetoxychavicol acetate for tuberculosis treatment” (National Science and Technology Development Agency, priority 2001, published 2002)", "key": {"[1]": {"test_system": "Candida albicans", "conditions": "cited from earlier work"}, "[2]": {"test_system": "Vero cells", "conditions": "African green monkey, 3 days"}, "[3]": {"test_system": "Pseudomonas aeruginosa", "conditions": "cited from earlier work"}, "[4]": {"test_system": "Ebstein-Barr virus", "conditions": "cited from earlier work"}, "[5]": {"target": "xanthine oxidase (Homo sapiens, UniProt P47989)", "sequence (P47989 whole entry, species assumed)": "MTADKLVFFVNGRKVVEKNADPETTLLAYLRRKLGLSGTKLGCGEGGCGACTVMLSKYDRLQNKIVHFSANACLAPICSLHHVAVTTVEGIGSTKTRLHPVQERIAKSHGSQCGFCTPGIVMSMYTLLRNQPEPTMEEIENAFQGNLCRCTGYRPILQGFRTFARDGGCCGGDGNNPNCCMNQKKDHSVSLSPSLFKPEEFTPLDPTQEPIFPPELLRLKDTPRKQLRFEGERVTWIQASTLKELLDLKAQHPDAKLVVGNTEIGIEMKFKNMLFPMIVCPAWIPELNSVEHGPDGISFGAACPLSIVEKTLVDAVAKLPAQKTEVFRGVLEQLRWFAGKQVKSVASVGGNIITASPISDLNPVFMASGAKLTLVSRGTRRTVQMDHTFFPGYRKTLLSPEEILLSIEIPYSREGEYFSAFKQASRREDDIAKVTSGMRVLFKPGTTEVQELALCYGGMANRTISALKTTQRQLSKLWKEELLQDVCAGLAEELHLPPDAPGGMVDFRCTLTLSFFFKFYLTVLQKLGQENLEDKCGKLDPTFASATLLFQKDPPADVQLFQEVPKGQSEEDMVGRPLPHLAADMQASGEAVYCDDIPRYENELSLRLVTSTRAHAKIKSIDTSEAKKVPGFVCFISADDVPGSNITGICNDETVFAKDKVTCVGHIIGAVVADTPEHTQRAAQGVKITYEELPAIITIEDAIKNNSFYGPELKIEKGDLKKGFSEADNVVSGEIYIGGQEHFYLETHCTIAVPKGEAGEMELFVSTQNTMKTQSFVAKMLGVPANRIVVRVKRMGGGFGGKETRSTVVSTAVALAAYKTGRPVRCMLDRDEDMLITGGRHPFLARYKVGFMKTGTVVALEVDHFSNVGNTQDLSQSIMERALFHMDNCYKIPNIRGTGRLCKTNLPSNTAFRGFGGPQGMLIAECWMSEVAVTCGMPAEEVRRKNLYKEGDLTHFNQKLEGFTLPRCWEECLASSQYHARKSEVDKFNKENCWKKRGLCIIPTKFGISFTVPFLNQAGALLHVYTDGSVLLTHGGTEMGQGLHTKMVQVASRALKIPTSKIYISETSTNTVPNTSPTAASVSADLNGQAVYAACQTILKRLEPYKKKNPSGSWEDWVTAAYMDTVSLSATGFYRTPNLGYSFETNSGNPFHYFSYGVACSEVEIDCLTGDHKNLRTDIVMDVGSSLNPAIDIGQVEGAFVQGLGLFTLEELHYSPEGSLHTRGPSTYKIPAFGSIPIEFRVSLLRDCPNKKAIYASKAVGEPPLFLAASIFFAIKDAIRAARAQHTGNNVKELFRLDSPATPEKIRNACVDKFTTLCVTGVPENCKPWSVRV", "conditions": "cited from earlier work"}, "[6]": {"test_system": "Mycobacterium tuberculosis H37Ra strain (ATCC 25166)", "assay": "Microplate Alamar Blue assay (MABA), growth inhibition", "assay_type": "cell-based", "conditions": "two-fold serial dilution from 50 to 0.025 μg/ml, read-out: MIC against M. tuberculosis H37Ra", "experimental": "Mycobacterium tuberculosis H37Ra strain (ATCC 25166) was grown in 100 ml of Middlebrook 7H9 broth supplemented with 0.2% glycerol, 1.0 gm/L of casitone, 10% OADC, and 0.05% Tween 80. The complete medium was referred to as 7H9GC-Tween. The bacteria were incubated in 500-ml flasks on a rotary shaker at 200 rpm and 37° C. until the optical density at 550 nm reached 0.4-0.5. The bacteria were washed twice with phosphate-buffered saline and then suspended in 20 ml of phosphate-buffered saline. The suspension was passed through an 8-μm-pore-size filter to eliminate clumps. The number of the bacteria in the filtrates was counted by plating the bacteria in Middlebrook 7H10 agar. The filtrates were stored at −80° C.\nAnti-tuberculous testing was performed in a 96-well microplate as previously described (Collins, L. and Franzblau, S. G. 1997). […]\nThe plates were sealed with Parafilm and were incubated at 37° C. for 5 days. […] The results were recorded at 24 h post-reagent addition.\nA blue color in the well was interpreted as no growth, reflecting the activity of the test compound in the well. A pink color was scored as growth and reflected the lack of activity of the test compound. A few wells appeared violet after 24 h of incubation, but they invariably changed to pink after another day of incubation and thus were scored as growth (while the adjacent blue wells remained blue). […]"}, "[7]": {"test_system": "Rhizopus stolonifer, Penicillium expansum, Aspergilus niger", "conditions": "compared with MIC for dermatophytic fungi; cited from earlier work"}, "[8]": {"test_system": "NADPH oxidase", "conditions": "cited from earlier work"}, "[9]": {"test_system": "Staphylococcus aureus", "conditions": "cited from earlier work"}, "[10]": {"test_system": "nitric oxide synthase production in RAW264 (mice macrophage) cell line", "conditions": "concentration of 250 (unit not given), cited from earlier work"}, "[11]": {"test_system": "Bacillus subtilis", "conditions": "cited from earlier work"}, "[12]": {"test_system": "Escherichia coli", "conditions": "cited from earlier work"}, "[13]": {"test_system": "tumor and cancer in mice experimental models", "conditions": "skin, bile duct, esophageal, large intestinal, oral cancer and liver tumor models; cited from earlier work"}, "[14]": {"test_system": "dermatophytic fungi such as Trichophyton mentagrophytes, Trichophyton rubrum, Trichophyton concentricum and Epidermophyton floccosum", "conditions": "cited from earlier work"}}}
{"smiles": "C=CC(OC(C)=O)c1ccc(OC(C)=O)cc1", "note": "(stereo not drawn) [1′-acetoxychavicol acetate, 1′-Acetoxychavicol acetate]", "values": [{"measurement": "growth inhibition of Candida albicans", "setting": "[1]", "value": "could not inhibit the growth"}, {"measurement": "toxic level against Vero cells (concentration giving less than half the viable cells of negative control)", "setting": "[2]", "value": 2.0, "unit": "µg/mL"}, {"measurement": "growth inhibition of Pseudomonas aeruginosa", "setting": "[3]", "value": "could not inhibit the growth"}, {"measurement": "inhibition of activation of tumor virus", "setting": "[4]", "value": "could inhibit the activation of tumor virus"}, {"measurement": "inhibition of the function of xanthine oxidase", "setting": "[5]", "value": "could inhibit the function"}, {"measurement": "MIC", "setting": "[6]", "value": 0.1, "unit": "mg/L"}, {"measurement": "growth inhibition of Rhizopus stolonifer, Penicillium expansum, Aspergilus niger", "setting": "[7]", "value": "inhibited the growth of several other fungi"}, {"measurement": "inhibition of the function of NADPH oxidase", "setting": "[8]", "value": "could inhibit the function"}, {"measurement": "growth inhibition of Staphylococcus aureus", "setting": "[9]", "value": "could slightly inhibit the growth"}, {"measurement": "inhibition of nitric oxide synthase production, lipopolysaccharide stimulated", "setting": "[10]; 100 ng/ml bacterial lipopolysaccharide", "value": "could completely inhibit"}, {"measurement": "inhibition of nitric oxide synthase production, interferon-γ stimulated", "setting": "[10]; 100 ng/ml interferon-γ", "value": 80, "unit": "%"}, {"measurement": "growth inhibition of Bacillus subtilis", "setting": "[11]", "value": "could not inhibit the growth"}, {"measurement": "growth inhibition of Escherichia coli", "setting": "[12]", "value": "could not inhibit the growth"}, {"measurement": "inhibition of tumor and cancer formation", "setting": "[13]", "value": "can inhibit the formation of many tumor and cancer"}, {"measurement": "minimal inhibitory concentrations (MIC) against dermatophytic fungi", "setting": "[14]", "value": "50 to 250", "unit": "mg/L"}]}
